The text below walks through data of US4803209A, “Substituted 2,3-diphenyl-1,2-dihydroquinoxalines” (International Minerals & Chemical Corp., priority 1987, dated 1989).

Like-named read-outs stand apart in the source and are kept apart here.

In one data set the test system is kidney cell monolayer. The data set is described as follows: Toxicity to cultured kidney cell monolayer in the in vitro anticoccidial test. It counts as cell-based, chick. Set-up: key: T: toxic (inhibited kidney cell monolayer formation). The settings on record: 3 days. As for the experimental part: For in vitro screen tests, Hubbard X Hubbard chicks were maintained on drug-free starter diets in brooders in a coccidia-free room. Water was available ad libitum. At 2-3 weeks of age, 3-6 chicks were sacrificed by decapitation and bled. All tissue culture preparation, propagation and test steps were carried out using strict aseptic techniques. Kidney cells next were combined in a single sterile tube and evenly dispersed by agitation. An appropriate dilution (usually 1/10X to 1/25X) was counted microscopically in a hemocytometer and the cell suspension diluted in 500 ml sterile bottles to 200,000 to 250,000 cells/ml of growth medium. Multiwell tissue culture plates (Falcon No. 3008 or Costar No. 3524) were employed in all in vitro screen tests. Immediately after preparation of the kidney cell suspension, each of the 24 wells of 20 to 60 multiwell plates was inoculated with 1 ml of cells using a sterile syringe-type continuous pipettor (Cornwall). Plates then were incubated at once in a 5% CO2 incubator at 39° C. and ≥80% humidity. At about 24 hours one plate was removed and briefly examined for monolayer initiation under phase microscopy at 200X. At 40-48 hours monolayer growth was well initiated and satisfactory for initiation of drug tests. At this time attached cells were spreading and putting out arm-like projections in many areas of each well. The medium on plates which would not be used for drug tests at this time was replaced with prewarmed EBSS plus antibiotics, and these plates were returned to the incubator until time of use 24 to 48 hours later. The latter step was incorporated to remove debris and toxins from the young cell monolayers and also delay monolayer growth until initiation of drug tests. For each test compound an estimated 10 mg of test compound was placed in a 15×150 mm disposable screw-cap test tube (Belco No. 2009-16150). In a typical test employing 25 multiwell plates, tubes containing test compounds were set up and four drops of dimethylsulfoxide (DMSO) were added to each tube. Next 10 ml sterile distilled water was added to each tube and the tubes were capped tightly and mixed by agitation. Primary compound solutions containing about 1000 ppm test compound were serially diluted in disposable tubes (Falcon No. 2051) containing 1/2 strength growth medium, to yield the concentrations shown in Table 3 below. Sterile 1 cc disposable syringes (Tomac) were employed both for making dilutions and adding test compounds to plates. In setting up drug tests, five multiwell plates containing 48-96 hr monolayers were removed as a group from the incubator. The medium was quickly poured off one multiwell plate and 0.5 ml of the lowest dilution of test compound was added to each of two wells in the first column of wells, and an equal volume of a higher dilution of the same substance was added to the remaining two wells in the same column. This procedure was repeated with the next test substance using the wells in the second column on the plate. Dilutions of the remaining test substances were placed in corresponding columns of the plate. After compounds had been added to the first set of five plates, 0.5 ml of a 2×10^5 /ml suspension of sporozoites was added to each well of each plate using a sterile continuous pipettor. To minimize the effects of exposing growth medium to the atmosphere, all additions were made rapidly and inoculated plates were immediately returned to the incubator. Three days after drug and sporozoite addition, plates were removed a few at a time from the incubator for enumeration of parasites. […] The medium was quickly discarded and counts made under phase microscopy at 200X of the total numbers of schizonts and […] per field in each of five random fields. The average number of parasites per field was then calculated. The results of the in vitro anticoccidial tests, which are given in Table 3 below, show the compounds to have toxic effects upon cultured cells.

Data set [1] concerns Eimeria tenella Eli Lilly Strain 65 (Lilly 65). The data set is described as follows: In vitro anticoccidial test in chick kidney cell monolayers. It counts as cell-based. The settings on record: 72 h, 3 days, read-out: % Inhibition of Coccidia.
For the next data set, the system named is Salmonella typhimurium. It counts as cell-based.
The test system of data set [2] is Bacteroides fragilis (Bf). Description: Antimicrobial growth inhibition, Bf. The format is cell-based. The settings on record: Anaerobic, 6 h, 37° C.
Data set [3] deals with Clostridium perfringens (Cp). The format is cell-based. As to conditions: Anaerobic, 6 h, 37° C.
Data set [4] in a line: Growth promotion and feed utilization in chicks. The format is in vivo, chicks (broiler cockerels). As to conditions: 8 weeks.
For data set [5], the system named is Streptococcus sp. 1 X C15 (Strep C15). It counts as cell-based.
Data set [6] deals with antibiotic resistant E. coli (E.C. 324). The format is cell-based. The settings on record: Gram Neg., 6 h, 37° C., aerobic.
Data set [7] concerns E. coli strain 046 (E.C. 046). The format is cell-based.
Data set [8] deals with Streptococcus sp. 1 X A7 (Strep A7). The format is cell-based.
[9] abbreviates: experiment set 4, 50 ppm in feed.
Setting [10] is: experiment set 1, 75 ppm in feed.
Setting [11] is: experiment set 2, 50 ppm in feed.
Where [12] appears, read: experiment set 3, 50 ppm in feed.
Setting [13] is: experiment set 5, 50 ppm in feed.

The term inhibition denotes how much of the control response was suppressed. For the compound `Oc1ccc(Cl)cc1C1=Nc2ccccc2NC1c1cc(Cl)ccc1O` (stereo not drawn) [Example 5, 2,3-di(2-hydroxy-5-chlorophenyl)-1,2-dihydroquinoxaline], in the data set with kidney cell monolayer (100 ppm), the “% Inhibition of Coccidia: T = toxic” value is reported as “T”. In data set [1], the inhibition at 0.001 ppm came out at 1%, the inhibition at 0.01 ppm came out at 0%, the inhibition at 0.1 ppm was determined as 6% and the inhibition at 1 ppm stood at 31%. The inhibition at 10 ppm in [1] (10.0 ppm) is 100%.
Consider `NC[C@H]1O[C@H](O[C@H]2[C@H](O)[C@@H](O[C@H]3O[C@H](CO)[C@@H](O)[C@H](N)[C@H]3O)[C@H](N)C[C@@H]2N)[C@H](O)[C@@H](O)[C@@H]1O` [Kanamycin], for which the “Growth of S.T. in the presence of the test compound” value in the data set with Salmonella typhimurium (6.4 ppm) was “+”; in the data set on Salmonella typhimurium (64 ppm), “-”. The “Growth of Bf in the presence of the test compound” value (“Growth of Bf” for short) in [2] (6.4 ppm) and in [2] (64 ppm) was “-” each time. The “Growth of Cp in the presence of the test compound” value (“Growth of Cp” for short) in data set [3] (6.4 ppm) and in data set [3] (64 ppm) was “+” each time. Moreover, the “feed efficiency (% better or worse than control)” value in data set [4] (setting [9]) is given as 19%. Also, the “weight gain (% better or worse than control)” value in data set [4] (setting [9]) is 14%. Moreover, the “Growth of Strep C15 in the presence of the test compound” value (“Growth of Strep C15” for short) in data set [5] (6.4 ppm) and in data set [5] (64 ppm) was “-” in each case. Moreover, the “Growth of E.C. 324 in the presence of the test compound” value in data set [6] (6.4 ppm) is “+”; in data set [6] (64 ppm), “-”. For the same compound, the “Growth of E.C. 046 in the presence of the test compound” value in [7] (6.4 ppm) and in data set [7] (64 ppm) was “+” throughout. In addition, the “Growth of Strep A7 in the presence of the test compound” value (“Growth of Strep A7” below) in data set [8] (6.4 ppm) and in data set [8] (64 ppm) was “-” each time.
Regarding `CC1(C)S[C@@H]2[C@H](NC(=O)Cc3ccccc3)C(=O)N2[C@H]1C(=O)O` [Penicillin], the figures for the “Growth of S.T. in the presence of the test compound” value in the data set on Salmonella typhimurium (6.4 ppm) and in the data set with Salmonella typhimurium (64 ppm) were “+” and “-”, respectively. Further, the “Growth of Bf” value in data set [2] (6.4 ppm) is given as “+”; in data set [2] (64 ppm) it was “-”. The “Growth of Cp” value in [3] (6.4 ppm) and in data set [3] (64 ppm) was “+” each time. In addition, the “feed efficiency (% better or worse than control)” value came to 5.5% in data set [4] (setting [10]); 32% in data set [4] (setting [11]); 13% in data set [4] (setting [12]); 11% in data set [4] (setting [9]); 21% in data set [4] (setting [13]). The “weight gain (% better or worse than control)” value in [4] (setting [10]) is listed as 20%; in data set [4] (setting [11]), 40%; in data set [4] (setting [12]) it was 35%; in data set [4] (setting [9]), 19%; in data set [4] (setting [13]), 50%. Further, the “Growth of Strep C15” value in data set [5] (6.4 ppm) and in [5] (64 ppm) was “-” in each case. Further, the “Growth of E.C. 324 in the presence of the test compound” value in [6] (6.4 ppm) is reported as “+”; in data set [6] (64 ppm), “-”. Further, the “Growth of E.C. 046 in the presence of the test compound” value in [7] (6.4 ppm) is recorded as “+”; in data set [7] (64 ppm), “-”. In addition, the “Growth of Strep A7” value in data set [8] (6.4 ppm) and in data set [8] (64 ppm) was “-” throughout.
On to `COc1ccc(C2=Nc3cc(C)c(C)cc3NC2c2ccc(OC)cc2O)c(O)c1` (stereo not drawn) [Example 8, 2,3-di(2-hydroxy-4-methoxyphenyl)-6,7-dimethyl-1,2-dihydroquinoxaline], for which the “% Inhibition of Coccidia: T = toxic” value with kidney cell monolayer (10.0 ppm) is reported as “T”. In the data set on kidney cell monolayer (100 ppm), the “% Inhibition of Coccidia: T = toxic” value is reported as “T”. Besides, in data set [1], the inhibition at 0.001 ppm came out at 0%, the inhibition at 0.01 ppm was determined as 9%, the inhibition at 0.1 ppm worked out at 12% and the inhibition at 1 ppm worked out at 99%.
Take Gentamicin: the “Growth of S.T. in the presence of the test compound” value with Salmonella typhimurium (6.4 ppm) and in the data set on Salmonella typhimurium (64 ppm) was “-” each time. Further, the “Growth of Bf” value in data set [2] (6.4 ppm) and in [2] (64 ppm) was “-” each time. The “Growth of Cp” value in data set [3] (6.4 ppm) and in [3] (64 ppm) was “+” throughout. In addition, in data set [4] (setting [12]), the “feed efficiency (% better or worse than control)” value is 15%. In addition, the “weight gain (% better or worse than control)” value in data set [4] (setting [12]) was 32%. The “Growth of Strep C15” value in data set [5] (6.4 ppm) and in data set [5] (64 ppm) was “-” in each case. For the same compound, the “Growth of E.C. 324 in the presence of the test compound” value is given as “+” in data set [6] (6.4 ppm) and “-” in [6] (64 ppm). For the same compound, the “Growth of E.C. 046 in the presence of the test compound” value in [7] (6.4 ppm) is reported as “+”; in data set [7] (64 ppm), “-”. Also, the “Growth of Strep A7” value in [8] (6.4 ppm) and in data set [8] (64 ppm) was “-” throughout.
On to `Oc1ccccc1C1=Nc2cc(Cl)c(Cl)cc2NC1c1ccccc1O` (stereo not drawn) [Example 2, 2,3-di(2-hydroxyphenyl)-6,7-dichloro-1,2-dihydroquinoxaline], for which the “% Inhibition of Coccidia: T = toxic” value in the data set on kidney cell monolayer (10.0 ppm) was “T”. Besides, the “% Inhibition of Coccidia: T = toxic” value with kidney cell monolayer (100 ppm) is recorded as “T”. In data set [1], the inhibition at 0.001 ppm worked out at 42%, the inhibition at 0.01 ppm is 71%, the inhibition at 0.1 ppm stood at 89% and the inhibition at 1 ppm worked out at 100%.
In the case of `CCC[C@@H]1C[C@@H](C(=O)N[C@@H]([C@H]2O[C@H](SC)[C@H](O)[C@@H](O)[C@H]2O)[C@@H](C)O)N(C)C1` [Lincomycin], the “Growth of S.T. in the presence of the test compound” value in the data set with Salmonella typhimurium (6.4 ppm) and in the data set on Salmonella typhimurium (64 ppm) was “+” in each case. Also, the “Growth of Bf” value in [2] (6.4 ppm) and in [2] (64 ppm) was “-” each time. For the same compound, the “Growth of Cp” value in data set [3] (6.4 ppm) and in [3] (64 ppm) was “+” each time. Further, the “feed efficiency (% better or worse than control)” value in data set [4] (setting [10]) is 12%. For the same compound, in data set [4] (setting [10]), the “weight gain (% better or worse than control)” value amounted to 20%. The “Growth of Strep C15” value in data set [5] (6.4 ppm) and in data set [5] (64 ppm) was “-” each time. For the same compound, the “Growth of E.C. 324 in the presence of the test compound” value in data set [6] (6.4 ppm) and in data set [6] (64 ppm) was “+” each time. In addition, the “Growth of E.C. 046 in the presence of the test compound” value in data set [7] (6.4 ppm) and in data set [7] (64 ppm) was “+” in each case. Further, the “Growth of Strep A7” value in data set [8] (6.4 ppm) and in [8] (64 ppm) was “-” each time.
